Test results from article PMC9085577, “Discovery of a Potent and Orally Active Dual GPBAR1/CysLT1R Modulator for the Treatment of Metabolic Fatty Liver Disease” (Frontiers in Pharmacology, 2022).
≈ marks a conversion by molar mass, not a printed value. Where two headings read alike, the source gives them in different places.

How the values were obtained:
human GPBAR1 = target: T1, human GPBAR1 (Homo sapiens, UniProt Q8TDU6); assay: GPBAR1 CRE-luciferase reporter transactivation assay in HEK-293T cells; format: cell-based; settings: HEK-293T; compound 10 µM relative to TLCA (10 μM) as 100, CRE transactivation, HEK293T cells; read-out: GPBAR1 Eff (%) maximum efficacy
T1 construct: expressed in transfected cells; host or cells: HEK-293T cells, transient transfection (Fugene HD)
T1 sequence (Q8TDU6 1-330): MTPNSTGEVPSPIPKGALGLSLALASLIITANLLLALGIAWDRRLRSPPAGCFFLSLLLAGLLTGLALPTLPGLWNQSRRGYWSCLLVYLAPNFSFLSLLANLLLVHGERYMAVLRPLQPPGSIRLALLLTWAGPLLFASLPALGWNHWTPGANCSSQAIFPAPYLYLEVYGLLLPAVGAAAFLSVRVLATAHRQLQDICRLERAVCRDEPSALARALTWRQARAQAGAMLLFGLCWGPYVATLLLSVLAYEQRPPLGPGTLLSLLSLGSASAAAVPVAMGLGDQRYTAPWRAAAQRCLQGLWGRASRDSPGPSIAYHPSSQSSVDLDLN
Method: GPBAR1. […] At 18 h post stimulations, cellular lysates were assayed for luciferase and Renilla activities using the Dual-Luciferase Reporter assay system (E1980, Promega Madison WI). Luminescence was measured using Glomax 20/20 luminometer (Promega, Madison WI). Luciferase activities were normalized with Renilla activities.
Agonistic activities of compounds on GPBAR1 were compared to TLCA, which was set as 100%.

Human CysLT1 (LTD4) = target: T2, Human CysLT1 (LTD4) (Homo sapiens, UniProt Q9Y271); assay: Human CysLT1 (LTD4) antagonist effect cellular functional assay (Ca2+ fluorescence, Eurofins Cerep-Panlabs); format: cell-based; settings: for IC50: 0.1 nM LTD4
T2 construct: Eurofins Cerep-Panlabs (France), contract assay
T2 sequence (Q9Y271 1-337): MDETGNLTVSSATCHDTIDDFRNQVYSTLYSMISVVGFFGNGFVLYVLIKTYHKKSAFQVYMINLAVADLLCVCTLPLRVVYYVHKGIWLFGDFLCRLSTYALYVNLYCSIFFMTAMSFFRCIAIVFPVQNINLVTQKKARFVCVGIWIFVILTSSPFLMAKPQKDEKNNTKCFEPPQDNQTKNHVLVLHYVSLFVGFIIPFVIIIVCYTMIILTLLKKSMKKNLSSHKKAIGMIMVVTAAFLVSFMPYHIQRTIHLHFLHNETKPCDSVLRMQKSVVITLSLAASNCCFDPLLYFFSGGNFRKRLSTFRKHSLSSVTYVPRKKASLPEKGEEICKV
Method: Human CysLT1 (LTD4) (h) (antagonist effect) Cellular Functional Assay. These assays were performed at Eurofins Cerep-Panlabs (France). The cells were suspended in DMEM buffer (Invitrogen) and then distributed in microplates at a density of 3.104 cells/well. […] Thereafter, the assay plates are positioned in a microplate reader (CellLux, PerkinElmer), which was used for the addition of the test compound or HBSS buffer, then 5 min later, 0.1 nM LTD4 or HBSS buffer (basal control), and measured the changes in fluorescence intensity, which varies proportionally to the free cytosolic Ca^2+-ion concentration.

[1] = parameters: method as in Fiorillo et al., 2021; settings: ref Fiorillo et al., 2021; cited from earlier work
[2] = parameters: method as in Fiorillo et al., 2021; settings: ref Fiorillo et al., 2021; cited from earlier work; remark: listed apart in the source
[3] = parameters: method as in Fiorillo et al., 2021; settings: aqueous, pH 7.4; ref Fiorillo et al., 2021; cited from earlier work
[4] = parameters: method as in Fiorillo et al., 2021; settings: pH 7.4; ref Fiorillo et al., 2021; cited from earlier work
[5] = antagonist effect, read-out: CysLT1R IC50

## COC(=O)c1cccc(-c2ccc(OCc3ccc4ccccc4n3)cc2)c1 [Compound 1, Methyl 4'-(quinolin-2-ylmethoxy)-[1,1′-biphenyl]-3-carboxylate]
Human GPBAR1
  Emax: 56.9 ± 7.8%

## OCc1cccc(-c2ccc(OCc3ccc4ccccc4n3)cc2)c1 [Compound 3, (4'-(quinolin-2-ylmethoxy)-[1,1′-biphenyl]-3-yl)-methanol]
Human CysLT1 (LTD4); antagonist effect
  CysLT1R efficacy (percent inhibition of the control response to 0.1 nM LTD4): 59 ± 3.6%
Human GPBAR1
  Emax: 2.1 ± 0.06%

## COC(=O)c1ccc(-c2ccc(OCc3ccc4ccccc4n3)cc2)cc1 [Compound 4, Methyl 4'-(quinolin-2-ylmethoxy)-[1,1′-biphenyl]-4-carboxylate]
Human GPBAR1
  Emax: 13.5 ± 1%

## O=C(O)c1ccc(-c2ccc(OCc3ccc4ccccc4n3)cc2)cc1 [Compound 5, 4'-(quinolin-2-ylmethoxy)-[1,1′-biphenyl]-4-carboxylic acid]
Human GPBAR1
  Emax: 36.7 ± 3%

## OCc1ccc(-c2ccc(OCc3ccc4ccccc4n3)cc2)cc1 [Compound 6, (4'-(quinolin-2-ylmethoxy)-[1,1′-biphenyl]-4-yl)-methanol]
Human CysLT1 (LTD4); antagonist effect
  CysLT1R efficacy (percent inhibition of the control response to 0.1 nM LTD4): 0.8 ± 1.5%
Human GPBAR1
  Emax: 64.9 ± 13%

## COC(=O)CCCCOc1cccc(OCc2ccc3ccccc3n2)c1 [Compound 7]
Human CysLT1 (LTD4); antagonist effect
  CysLT1R efficacy (percent inhibition of the control response to 0.1 nM LTD4): 76 ± 9.6%
Human CysLT1 (LTD4); [5]
  IC50: 1680 ± 280 nM
Human GPBAR1
  Emax: 20.5 ± 2.4%

## O=C(O)CCCCOc1cccc(OCc2ccc3ccccc3n2)c1 [Compound 8]
Human CysLT1 (LTD4); antagonist effect
  CysLT1R efficacy (percent inhibition of the control response to 0.1 nM LTD4): 99.6 ± 2.0%
Human CysLT1 (LTD4); [5]
  IC50: 900 ± 500 nM
Human GPBAR1
  Emax: 12 ± 1.3%

## OCCCCCOc1cccc(OCc2ccc3ccccc3n2)c1 [Compound 9, 5-(3-(quinolin-2-ylmethoxy)phenoxy)-pentan-1-ol]
Human CysLT1 (LTD4); antagonist effect
  CysLT1R efficacy (percent inhibition of the control response to 0.1 nM LTD4): 106.9 ± 1.6%
Human CysLT1 (LTD4); [5]
  IC50: 360 ± 580 nM
Human GPBAR1
  Emax: 30.8 ± 7.5%

## COC(=O)CCCOc1cccc(OCc2ccc3ccccc3n2)c1 [Compound 10, Methyl 4-(3-(quinolin-2-ylmethoxy)phenoxy)-butanoate]
Human CysLT1 (LTD4); antagonist effect
  CysLT1R efficacy (percent inhibition of the control response to 0.1 nM LTD4): 92.1 ± 3.4%
Human CysLT1 (LTD4); [5]
  IC50: 1550 ± 430 nM
Human GPBAR1
  Emax: 20.2 ± 4.5%

## O=C(O)CCCOc1cccc(OCc2ccc3ccccc3n2)c1 [Compound 11, 4-(3-(quinolin-2-ylmethoxy)phenoxy)-butanoic acid]
Human CysLT1 (LTD4); antagonist effect
  CysLT1R efficacy (percent inhibition of the control response to 0.1 nM LTD4): 92.8 ± 2.3%
Human GPBAR1
  Emax: 18.3 ± 4.8%

## OCCCCOc1cccc(OCc2ccc3ccccc3n2)c1 [Compound 12, 4-(3-(quinolin-2-ylmethoxy)phenoxy)-butan-1-ol]
Human CysLT1 (LTD4); antagonist effect
  CysLT1R efficacy (percent inhibition of the control response to 0.1 nM LTD4): 108.6 ± 1.8%
Human CysLT1 (LTD4); [5]
  IC50: 310 ± 240 nM
Human GPBAR1
  Emax: 12.8 ± 3.3%

## CCCCCC(O)c1cccc(OCc2ccc3ccccc3n2)c1 (stereo not drawn) [REV5901, alpha-pentyl-3-[2-quinolinylmethoxy] benzyl alcohol]
[1]
  S9 fraction Clint: 40 μl/min/mg protein
  S9 fraction t1/2: 57 min
[2]
  Microsomes Clint: 63 μl/min/mg protein
  Microsomes t1/2: 37 min
[3]
  Solubility: 39.3 µM (≈ 13.2 µg/mL)
Human CysLT1 (LTD4); CysLT1R IC50, antagonist effect
  IC50: 2500 ± 1200 nM
[4]
  LogD: 3.1
